Key:
Assay type in all cases: biochemical
FGFR1 = biological target: T1, FGFR1 (Homo sapiens, UniProt P11362, C488A/C584S); experiment: AlphaScreen kinase assay, FGFR1; conditions: read-out: IC50, activity toward kinase FGFR
T1 construct: P1351.pET N6 BI-PTP FGFR A458-E765-X C488A, C584S; made in house; host or cells: E. coli (PTP1B co-expressed)

c-Raf-1 = biological target: T2, c-Raf-1 (Homo sapiens, UniProt P04049); experiment: AlphaScreen kinase assay, c-Raf-1; conditions: read-out: IC50, activity toward kinase c-Raf-1
T2 construct: purchased Upstate Biotechnology

B-Raf = biological target: T3, B-Raf (Homo sapiens, UniProt P15056); experiment: AlphaScreen kinase assay, B-Raf; conditions: read-out: IC50, activity toward kinase B-Raf
T3 construct: purchased Upstate Biotechnology

Flt1 = biological target: T4, Flt1 (Homo sapiens, UniProt P17948); experiment: AlphaScreen kinase assay, Flt1; conditions: read-out: IC50, activity toward kinase Flt1
T4 construct: P1826.pETN6 BI-PTP FLT1 M799-D1165-X WT; His6 (N); made in house; host or cells: E. coli (PTP1B co-expressed)
T4 sequence (P17948 with tags, fused parts or gaps): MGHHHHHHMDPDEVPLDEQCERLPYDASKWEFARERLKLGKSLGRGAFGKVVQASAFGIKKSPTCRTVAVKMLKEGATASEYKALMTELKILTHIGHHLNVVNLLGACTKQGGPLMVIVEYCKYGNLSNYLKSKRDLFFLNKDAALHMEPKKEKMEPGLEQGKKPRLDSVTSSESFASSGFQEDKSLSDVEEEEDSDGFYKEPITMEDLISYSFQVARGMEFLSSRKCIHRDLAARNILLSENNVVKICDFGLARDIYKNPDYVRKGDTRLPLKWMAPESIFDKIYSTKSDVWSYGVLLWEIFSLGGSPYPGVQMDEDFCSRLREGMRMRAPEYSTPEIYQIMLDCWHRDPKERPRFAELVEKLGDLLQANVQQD

Ret = biological target: T5, Ret (Homo sapiens, UniProt P07949); experiment: AlphaScreen kinase assay, Ret; conditions: read-out: IC50, activity toward kinase Ret
T5 construct: P1378.pET-SF BI-PTP RET H661-R1012 HIS; made in house
T5 sequence (P07949 with tags, fused parts or gaps): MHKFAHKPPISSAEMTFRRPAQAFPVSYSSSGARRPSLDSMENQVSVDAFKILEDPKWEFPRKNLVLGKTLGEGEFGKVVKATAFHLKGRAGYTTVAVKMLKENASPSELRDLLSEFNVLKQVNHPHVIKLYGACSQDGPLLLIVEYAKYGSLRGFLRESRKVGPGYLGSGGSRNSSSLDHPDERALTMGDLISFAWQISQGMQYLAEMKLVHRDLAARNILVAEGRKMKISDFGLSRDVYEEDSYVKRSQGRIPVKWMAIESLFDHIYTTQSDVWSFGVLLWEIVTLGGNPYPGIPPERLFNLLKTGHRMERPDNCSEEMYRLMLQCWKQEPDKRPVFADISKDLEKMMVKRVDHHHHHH

Kit = biological target: T6, Kit (Homo sapiens, UniProt P10721); experiment: AlphaScreen kinase assay, Kit; conditions: read-out: IC50, activity toward kinase Kit
T6 construct: P1332.N6 BI PTP KIT M552-K948-X COD; His6 (N); made in house; host or cells: E. coli (PTP1B co-expressed)

B-Raf V600E = biological target: T7, B-Raf V600E (Homo sapiens, UniProt P15056, V600E); experiment: AlphaScreen kinase assay, B-Raf V600E; conditions: read-out: IC50, activity toward kinase B-Raf V600E
T7 construct: P4254. pFastBacBD-CDC37 BRAF D437-K722-X, V600E; His6 with pFastBac HT leader (TEV site) (N); made in house; host or cells: Sf9 (baculovirus; chaperone CDC37 co-expressed)

Fms = biological target: T8, Fms (Homo sapiens, UniProt P07333); experiment: AlphaScreen kinase assay, Fms; conditions: read-out: IC50, activity toward kinase Fms
T8 construct: purchased Upstate Biotechnology
T8 sequence (P07333 20-972): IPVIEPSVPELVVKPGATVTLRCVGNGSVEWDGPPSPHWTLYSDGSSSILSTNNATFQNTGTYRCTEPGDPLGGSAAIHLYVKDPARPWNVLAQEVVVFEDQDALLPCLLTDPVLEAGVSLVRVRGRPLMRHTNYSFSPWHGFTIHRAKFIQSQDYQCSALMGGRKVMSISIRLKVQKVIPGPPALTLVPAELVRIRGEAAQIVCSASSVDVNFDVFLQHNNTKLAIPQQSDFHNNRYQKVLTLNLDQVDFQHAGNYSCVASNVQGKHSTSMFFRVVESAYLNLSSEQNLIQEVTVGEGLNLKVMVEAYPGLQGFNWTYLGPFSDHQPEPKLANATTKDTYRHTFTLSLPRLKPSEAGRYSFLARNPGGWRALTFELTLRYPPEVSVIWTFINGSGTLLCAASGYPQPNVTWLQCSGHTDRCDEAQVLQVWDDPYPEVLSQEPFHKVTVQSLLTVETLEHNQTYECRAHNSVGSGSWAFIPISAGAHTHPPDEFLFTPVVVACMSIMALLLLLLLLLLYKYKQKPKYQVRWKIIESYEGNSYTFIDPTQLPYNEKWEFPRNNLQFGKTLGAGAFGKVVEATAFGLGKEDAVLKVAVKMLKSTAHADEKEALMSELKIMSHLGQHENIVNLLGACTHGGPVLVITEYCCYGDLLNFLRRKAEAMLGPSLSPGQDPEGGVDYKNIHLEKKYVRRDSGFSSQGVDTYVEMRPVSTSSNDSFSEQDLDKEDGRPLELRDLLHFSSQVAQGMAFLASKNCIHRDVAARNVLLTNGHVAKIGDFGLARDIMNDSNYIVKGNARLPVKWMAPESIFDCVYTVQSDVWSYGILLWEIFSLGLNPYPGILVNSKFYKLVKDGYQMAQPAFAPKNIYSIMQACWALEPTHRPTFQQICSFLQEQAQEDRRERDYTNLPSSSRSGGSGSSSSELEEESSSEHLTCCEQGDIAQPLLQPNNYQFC

T1 sequence (P11362 458-765 C488A/C584S): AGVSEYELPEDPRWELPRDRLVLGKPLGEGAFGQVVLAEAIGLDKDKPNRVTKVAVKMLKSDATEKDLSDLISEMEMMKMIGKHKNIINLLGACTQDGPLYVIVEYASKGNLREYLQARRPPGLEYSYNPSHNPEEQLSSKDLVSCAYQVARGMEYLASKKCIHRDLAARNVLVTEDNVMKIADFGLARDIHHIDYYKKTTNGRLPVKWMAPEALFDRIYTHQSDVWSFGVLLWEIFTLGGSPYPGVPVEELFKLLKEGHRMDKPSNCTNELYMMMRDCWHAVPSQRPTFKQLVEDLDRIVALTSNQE
T2 sequence (P04049 whole entry): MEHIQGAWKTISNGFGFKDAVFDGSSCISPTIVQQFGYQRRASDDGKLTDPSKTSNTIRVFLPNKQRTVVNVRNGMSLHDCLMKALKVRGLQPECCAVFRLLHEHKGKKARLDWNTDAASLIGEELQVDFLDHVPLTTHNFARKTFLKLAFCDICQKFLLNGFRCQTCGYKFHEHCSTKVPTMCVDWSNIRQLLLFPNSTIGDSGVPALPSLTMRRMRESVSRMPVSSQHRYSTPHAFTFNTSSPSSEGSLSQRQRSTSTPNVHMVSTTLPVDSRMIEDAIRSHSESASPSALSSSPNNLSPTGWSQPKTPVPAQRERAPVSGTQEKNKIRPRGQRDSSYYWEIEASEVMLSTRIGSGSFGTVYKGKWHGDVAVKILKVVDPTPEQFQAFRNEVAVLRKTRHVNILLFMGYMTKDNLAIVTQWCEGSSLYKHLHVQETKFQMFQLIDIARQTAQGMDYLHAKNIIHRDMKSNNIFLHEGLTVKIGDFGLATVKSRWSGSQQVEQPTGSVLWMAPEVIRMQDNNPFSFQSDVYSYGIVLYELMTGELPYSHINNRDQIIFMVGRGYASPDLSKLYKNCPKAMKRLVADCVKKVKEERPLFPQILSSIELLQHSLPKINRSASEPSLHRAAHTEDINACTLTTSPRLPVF
T7 sequence (P15056 with tags, fused parts or gaps V600E): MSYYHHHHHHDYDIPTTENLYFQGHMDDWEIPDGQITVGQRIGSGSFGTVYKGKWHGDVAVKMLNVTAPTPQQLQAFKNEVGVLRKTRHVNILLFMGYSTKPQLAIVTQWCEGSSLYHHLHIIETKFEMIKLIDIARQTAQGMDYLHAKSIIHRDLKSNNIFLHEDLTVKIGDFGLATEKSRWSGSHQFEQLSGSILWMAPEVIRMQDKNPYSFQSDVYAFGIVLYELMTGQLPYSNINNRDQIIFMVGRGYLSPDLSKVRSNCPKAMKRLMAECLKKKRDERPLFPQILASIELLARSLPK
T6 sequence (P10721 with tags, fused parts or gaps): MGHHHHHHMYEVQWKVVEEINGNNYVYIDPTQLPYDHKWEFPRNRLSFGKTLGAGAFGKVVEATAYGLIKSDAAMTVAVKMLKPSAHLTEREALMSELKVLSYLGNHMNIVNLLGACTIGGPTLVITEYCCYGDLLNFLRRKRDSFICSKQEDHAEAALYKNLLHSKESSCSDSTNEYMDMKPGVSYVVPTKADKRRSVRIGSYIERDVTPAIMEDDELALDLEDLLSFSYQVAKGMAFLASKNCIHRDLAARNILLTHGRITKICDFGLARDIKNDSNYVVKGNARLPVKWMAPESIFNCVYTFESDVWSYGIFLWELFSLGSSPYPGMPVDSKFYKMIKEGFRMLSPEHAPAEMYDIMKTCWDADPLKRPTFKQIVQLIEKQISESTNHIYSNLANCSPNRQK
T3 sequence (P15056 whole entry): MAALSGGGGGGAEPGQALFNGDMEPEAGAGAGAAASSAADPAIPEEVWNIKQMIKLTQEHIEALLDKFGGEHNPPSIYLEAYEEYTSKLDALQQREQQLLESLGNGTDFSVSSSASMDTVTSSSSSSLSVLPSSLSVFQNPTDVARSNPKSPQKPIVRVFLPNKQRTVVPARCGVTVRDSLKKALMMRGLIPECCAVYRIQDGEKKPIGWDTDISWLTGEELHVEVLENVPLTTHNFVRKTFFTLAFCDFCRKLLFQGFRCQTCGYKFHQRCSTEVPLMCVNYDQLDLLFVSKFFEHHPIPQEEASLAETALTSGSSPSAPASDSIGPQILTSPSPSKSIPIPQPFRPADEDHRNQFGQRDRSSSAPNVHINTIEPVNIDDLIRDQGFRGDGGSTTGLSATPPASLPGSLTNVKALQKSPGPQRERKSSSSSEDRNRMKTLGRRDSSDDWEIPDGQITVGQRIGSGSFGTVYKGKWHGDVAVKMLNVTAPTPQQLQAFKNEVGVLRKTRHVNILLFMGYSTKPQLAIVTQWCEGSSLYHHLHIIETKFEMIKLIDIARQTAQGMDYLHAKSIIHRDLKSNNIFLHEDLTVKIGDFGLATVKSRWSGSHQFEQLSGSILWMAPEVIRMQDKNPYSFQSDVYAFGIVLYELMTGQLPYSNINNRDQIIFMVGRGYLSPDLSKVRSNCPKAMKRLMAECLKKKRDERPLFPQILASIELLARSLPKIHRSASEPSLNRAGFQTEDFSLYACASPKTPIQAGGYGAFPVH

SMILES	IC50 (FGFR1) [µM]	IC50 (c-Raf-1) [µM]	IC50 (B-Raf) [µM]	IC50 (Flt1) [µM]	IC50 (Ret) [µM]	IC50 (Kit) [µM]	IC50 (B-Raf V600E) [µM]	IC50 (Fms) [µM]
COC(=O)Nc1ccc(F)c(C(=O)c2c[nH]c3ncccc23)c1F [Compound P-0974, [2,4-Difluoro-3-(1H-pyrrolo[2,3-b]pyridine-3-carbonyl)-phenyl]-carbamic acid methyl ester]	≤ 10	≤ 10						
Cc1c(NS(=O)(=O)N(C)C)cccc1C(=O)c1c[nH]c2ncc(Br)cc12 [Compound P-1609]	≤ 10		≤ 10	≤ 10			≤ 10	≤ 10
CCCS(=O)(=O)Nc1ccc(F)c(C(=O)c2c[nH]c3ncc(C(=O)OC)cc23)c1F [Compound P-1552, 3-[2,6-difluoro-3-(propane-1-sulfonylamino)-benzoyl]-1H-pyrrolo[2,3-b]pyridine-5-carboxylic acid methyl ester]			≤ 10	≤ 10		≤ 10	≤ 10	≤ 10
O=C(c1c(F)ccc(OC(F)F)c1F)c1c[nH]c2ncc(-c3cccnc3)cc12 [Compound P-1528, (3-Difluoromethoxy-2,6-difluoro-phenyl)-(5-pyridin-3-yl-1H-pyrrolo[2,3-b]pyridin-3-yl)-methanone]	≤ 10		≤ 10	≤ 10		≤ 10	≤ 10	≤ 10
CCC(C(=O)c1c[nH]c2ncccc12)S(=O)(=O)Nc1cc(F)cc(F)c1 (stereo not shown) [Compound P-1070]		≤ 10					≤ 10	
CCCS(=O)(=O)Nc1ccc(F)c(C(=O)c2c[nH]c3ncc(-c4cccc(F)c4)cc23)c1F [Compound P-1259, Propane-1-sulfonic acid {2,4-difluoro-3-[5-(3-fluoro-phenyl)-1H-pyrrolo[2,3-b]pyridine-3-carbonyl]-phenyl}-amide]	≤ 10		≤ 10	≤ 10		≤ 10	≤ 10	≤ 10
O=C(c1c(F)ccc(NS(=O)(=O)c2ccc(Cl)c(Cl)c2)c1F)c1c[nH]c2ncccc12 [Compound P-1015, 3,4-Dichloro-N-[2,4-difluoro-3-(1H-pyrrolo[2,3-b]pyridine-3-carbonyl)-phenyl]-benzenesulfonamide]	≤ 10	≤ 10					≤ 10	
COC(c1ccc(NCc2ccc(Cl)c(C(F)(F)F)c2)nc1)c1c[nH]c2ncccc12 (stereo not shown) [Compound P-1064]		≤ 10					≤ 10	
O=C(c1c(F)ccc(NS(=O)(=O)c2cccc(C(F)(F)F)c2)c1F)c1c[nH]c2ncc(Cl)cc12 [Compound P-1599, N-[3-(5-Chloro-1H-pyrrolo[2,3-b]pyridine-3-carbonyl)-2,4-difluoro-phenyl]-3-trifluoromethyl-benzenesulfonamide]			≤ 10	≤ 10		≤ 10	≤ 10	≤ 10
CCCNS(=O)(=O)c1ccc(OC)c(C(=O)c2c[nH]c3ncc(-c4cccnc4)cc23)c1F [Compound P-1078]	≤ 10	≤ 10						
COc1cnc2[nH]cc(C(=O)c3c(F)ccc(NS(=O)(=O)c4cccc(C(F)(F)F)c4)c3F)c2c1 [Compound P-1598, N-[2,4-Difluoro-3-(5-methoxy-1H-pyrrolo[2,3-b]pyridine-3-carbonyl)-phenyl]-3-trifluoromethyl-benzenesulfonamide]			≤ 10	≤ 10		≤ 10	≤ 10	≤ 10
O=C(c1cccc(OC(F)(F)F)c1)c1c[nH]c2ncc(-c3cccnc3)cc12 [Compound P-1413, (5-Pyridin-3-yl-1H-pyrrolo[2,3-b]pyridin-3-yl)-(3-trifluoromethoxy-phenyl)-methanone]		≤ 10				≤ 10	≤ 10	
CCCNC(=O)c1ccc(OC)c(C(=O)c2c[nH]c3ncc(-c4cccnc4)cc23)c1F [Compound P-1077]		≤ 10						
CS(=O)(=O)Nc1cccc(-c2cnc3[nH]cc(C(=O)c4cccc(OC(F)F)c4)c3c2)c1 [Compound P-1430, N-{3-[3-(3-Difluoromethoxy-benzoyl)-1H-pyrrolo[2,3-b]pyridin-5-yl]-phenyl}-methanesulfonamide]	≤ 10		≤ 10	≤ 10		≤ 10	≤ 10	≤ 10
COc1ccnc2[nH]cc(Cc3ccc(NCc4ccc(C(F)(F)F)cc4)nc3)c12 [Compound P-1110]	≤ 10		≤ 10	≤ 10				≤ 10
CCCC(=O)Nc1ccc(F)c(C(=O)c2c[nH]c3ncc(Br)cc23)c1F [Compound P-1283]	≤ 10	≤ 10					≤ 10	

Second part, the molecule after the results:

IC50 (FGFR1) [µM]	IC50 (c-Raf-1) [µM]	IC50 (B-Raf) [µM]	IC50 (Flt1) [µM]	IC50 (Ret) [µM]	IC50 (Kit) [µM]	IC50 (B-Raf V600E) [µM]	IC50 (Fms) [µM]	SMILES
	≤ 10	≤ 10						Fc1ccc(Nc2ccnc3[nH]ccc23)cc1F [Compound P-0987]
≤ 10			≤ 10	≤ 10	≤ 10			Cc1cc(C(=O)c2c[nH]c3ncc(-c4ccc(C(N)=O)cc4)cc23)nn1C [Compound P-0749]
	≤ 10	≤ 10						c1ccc2cc(Nc3ccnc4[nH]ccc34)ccc2c1 [Compound P-0975]
		≤ 10	≤ 10		≤ 10		≤ 10	O=C(NCCN1CCOCC1)Nc1ccc(F)c(C(=O)c2c[nH]c3ncc(Cl)cc23)c1F [Compound P-1580, 1-[3-(5-Chloro-1H-pyrrolo[2,3-b]pyridine-3-carbonyl)-2,4-difluoro-phenyl]-3-(2-morpholin-4-yl-ethyl)-urea]
	≤ 10					≤ 10		Clc1cnc2[nH]ccc2c1 [Compound P-1063]
		≤ 10	≤ 10		≤ 10	≤ 10	≤ 10	CCCS(=O)(=O)Nc1ccc(F)c(C(=O)c2c[nH]c3ncc(C(=O)O)cc23)c1F [Compound P-1559, 3-[2,6-difluoro-3-(propane-1-sulfonylamino)-benzoyl]-1H-pyrrolo[2,3-b]pyridine-5-carboxylic acid]
≤ 10		≤ 10	≤ 10			≤ 10	≤ 10	CCCS(=O)(=O)Nc1cccc(C(=O)c2c[nH]c3ncc(Br)cc23)c1C [Compound P-1608]
	≤ 10					≤ 10		Fc1cnc2[nH]ccc2c1 [Compound P-1061]
	≤ 10					≤ 10		CCCS(=O)(=O)Nc1ccc(F)c(C(O)c2c[nH]c3ncc(N4CCOCC4)cc23)c1F (stereo not shown) [Compound P-1071]
	≤ 10							c1cc2cc(N3CCOCC3)cnc2[nH]1 [Compound P-1118]
	≤ 10							CC1CCN(c2cnc3[nH]ccc3c2)CC1 [Compound P-1122]
	≤ 10					≤ 10		COc1cccc(Nc2ccnc3[nH]ccc23)c1 [Compound P-1065]
≤ 10		≤ 10	≤ 10		≤ 10	≤ 10	≤ 10	O=C(c1c(F)ccc(OC(F)F)c1F)c1c[nH]c2ncc(Br)cc12 [Compound P-1526, (5-Bromo-1H-pyrrolo[2,3-b]pyridin-3-yl)-(3-difluoromethoxy-2,6-difluoro-phenyl)-methanone]
	≤ 10	≤ 10						CCOc1cccc(Nc2ccnc3[nH]ccc23)c1 [Compound P-1076]
≤ 10	≤ 10				≤ 10	≤ 10	≤ 10	COc1cccc(Cc2c[nH]c3ncc(Br)cc23)c1F [Compound P-0535, 5-Bromo-3-(2-fluoro-3-methoxy-benzyl)-1H-pyrrolo[2,3-b]pyridine]
	≤ 10							CC(C)Oc1cccc(Nc2ccnc3[nH]ccc23)c1 [Compound P-1079]

From US8415469B2, “Compounds and methods for kinase modulation, and indications therefor” (Plexxikon Inc., priority 2005, dated 2013)
